Test results published in patent US20240425491A1, “HETEROARYL COMPOUNDS USEFUL IN THE TREATMENT OF COGNITIVE DISORDERS” (University College Cardiff Consultants Limited, priority 2021, published 2024).

Key:
[1] = molecular target: T1, human α5β3γ2L GABAA receptors in HEK293 cells (Homo sapiens, UniProt P18507+P31644); assay: In vitro electrophysiological recording assay (α5-GABAAR relative efficacy), SyncroPatch; type: cell-based; details: Conc 0.1 μM; GABA EC10-20
T1 construct: expressed in transfected cells
T1 sequence (P31644 32-462): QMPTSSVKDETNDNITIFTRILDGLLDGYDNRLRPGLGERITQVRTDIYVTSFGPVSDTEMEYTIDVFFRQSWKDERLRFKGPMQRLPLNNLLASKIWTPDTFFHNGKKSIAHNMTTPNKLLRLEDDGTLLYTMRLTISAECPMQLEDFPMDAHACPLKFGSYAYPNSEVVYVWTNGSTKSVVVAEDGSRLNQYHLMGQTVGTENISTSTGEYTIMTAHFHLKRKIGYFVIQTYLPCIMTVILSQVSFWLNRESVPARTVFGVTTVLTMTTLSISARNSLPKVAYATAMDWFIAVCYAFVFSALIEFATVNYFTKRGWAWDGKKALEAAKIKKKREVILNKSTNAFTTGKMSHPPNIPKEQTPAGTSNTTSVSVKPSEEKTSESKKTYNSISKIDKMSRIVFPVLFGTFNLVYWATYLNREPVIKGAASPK
T1 sequence (P28472 26-473 partner): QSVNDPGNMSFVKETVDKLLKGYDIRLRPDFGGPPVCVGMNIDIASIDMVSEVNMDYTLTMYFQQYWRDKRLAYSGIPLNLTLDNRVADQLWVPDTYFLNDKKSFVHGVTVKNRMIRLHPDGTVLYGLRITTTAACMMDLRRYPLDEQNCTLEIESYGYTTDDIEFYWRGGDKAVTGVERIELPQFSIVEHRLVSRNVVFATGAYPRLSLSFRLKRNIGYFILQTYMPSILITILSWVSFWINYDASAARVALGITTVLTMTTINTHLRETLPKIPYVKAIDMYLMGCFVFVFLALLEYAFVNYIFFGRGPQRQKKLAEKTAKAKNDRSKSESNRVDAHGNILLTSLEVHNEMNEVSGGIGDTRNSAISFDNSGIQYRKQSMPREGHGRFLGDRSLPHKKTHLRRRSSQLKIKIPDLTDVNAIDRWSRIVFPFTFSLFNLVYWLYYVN
T1 sequence (P18507 40-475): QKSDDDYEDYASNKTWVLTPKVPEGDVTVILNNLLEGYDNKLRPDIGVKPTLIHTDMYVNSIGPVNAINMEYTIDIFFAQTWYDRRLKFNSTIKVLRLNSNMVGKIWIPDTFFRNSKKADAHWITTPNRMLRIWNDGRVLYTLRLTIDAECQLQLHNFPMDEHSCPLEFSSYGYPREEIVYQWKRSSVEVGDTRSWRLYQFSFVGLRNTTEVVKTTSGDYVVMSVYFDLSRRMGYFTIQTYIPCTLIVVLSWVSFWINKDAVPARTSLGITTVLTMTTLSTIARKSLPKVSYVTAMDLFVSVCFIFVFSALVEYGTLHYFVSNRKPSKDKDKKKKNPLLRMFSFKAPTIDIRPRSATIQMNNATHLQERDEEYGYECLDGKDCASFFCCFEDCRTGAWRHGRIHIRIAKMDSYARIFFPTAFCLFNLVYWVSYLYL
From the text: Mouse L(tk^−) cells stably expressing human α1β3γ2, α2β3γ2, α3β3γ2, α5β3γ2 GABAARs generated by transfection of the individual subunits in the dexamethasone-inducible expression vector pMSGneo in mouse L(tk^−) cells (Hadingham et al., 1993, Mol. Pharmacol. 43:970-975 and 1993, Mol. Pharmacol. 44:1211-1218) were used for binding and functional assays. For certain compounds, HEK293 cells stable expressing the human α1β3γ2L, α2β3γ2L, α3β3γ2L and α5β3γ2L GABAA receptors were used to evaluate their functional effects in a SyncroPatch electrophysiology assay.
The efficacy of modulators was evaluated using either the automated patch-clamp platform QPatch16 (Sophion, Copenhagen, Denmark) or the SyncroPatch 384i (Nanion Technologies, Germany). Cells were harvested from flasks by enzymatic dissociation and re-suspended in serum-free medium.
For the Syncropatch recordings, a stacked addition protocol was used, in which GABA was rapidly applied and then washed off from the cell. All experiments were carried out at room temperature (20-22° C.) using a standard whole cell procedure. The currents recorded were acquired at 2 kHz and filtered using a Bessel filter. Whole-cell currents were measured at a holding potential of −80 mV.
For Syncropatch recordings, the extracellular recording solution contained: 140 mM NaCl, 4 mM KCl, 2 mM CaCl2), 1 mM MgCl2, 10 mM HEPES, 5 mM glucose (pH 7.4 and osmolarity of c. 300-310 mOsm/L). The intracellular recording solution contained: 90 mM KCl, 50 mM KF, 1.5 mM MgCl2, 11.1 mM EGTA and 10 mM HEPES (pH 7.2 and osmolarity of c. 300 mOsm/L). 2 mM of NaATP was added to the intracellular solution on the day of testing.
The effects of modulators were evaluated in the presence of a submaximal GABA concentration, giving typically 10-20% activation (GABA EC10-20) of the response elicited by a saturating GABA concentration. For QPatch recordings, to check and ensure baseline current stability before compound addition, five consecutive applications of GABA EC10-20 alone (each application with a 2 s duration, separated by minimum 1 min wash off periods) were performed before compound addition. The test compound was applied using the pipetting system of the QPatch system 1 min at least prior to co-application with GABA EC10-20. For SyncroPatch recordings, GABA EC20 alone was applied three times (1 s long applications, with wash steps in-between) before compound addition. This was followed by a 1-2 min pre-incubation with the test compound and then re-application of GABA EC10-20 in the presence of the compound. Finally, following a further wash step, a saturating concentration of GABA was applied, allowing the accurate evaluation for each cell of the percentage baseline activation elicited by the submaximal GABA applied.
The compounds were first dissolved in DMSO as a 10 mM stock and then further diluted to the testing concentrations so that the final DMSO concentration in the extracellular recording solution was kept constant at 0.1% for the QPatch recordings, or 0.2% for the SyncroPatch recordings.
The % efficacy of modulators was determined from the GABA elicited currents recorded in the presence and absence of the test compound, using the formula:
[((compound peak current−leak)−(GABA peak current−leak))/(GABA peak current−leak)]*100,
where ‘leak’ is the leak baseline current at −65 mV, ‘compound peak current’ is the current elicited by co-application of compound and GABA, and ‘GABA peak current’ is the current elicited by GABA alone during the 5th GABA application. The results were presented as ‘relative efficacy’ for each compound generally at a concentration equal or higher than 100 times their determined Ki. The relative efficacy of a compound was calculated by normalising its efficacy to the efficacy of methyl-6,7-dimethoxy-4-ethyl-beta-carboline-3-carboxylate (DMCM) that was separately determined produced an attenuation of GABA-induced currents of −57±4%, n=5.

[2] = molecular target: T2, human α5β3γ2 GABAARs in mouse L(tk−) cells (Homo sapiens, UniProt P18507+P31644); assay: In vitro electrophysiological recording assay (α5-GABAAR relative efficacy), QPatch; type: cell-based; details: GABA EC10-20
T2 construct: expressed in transfected cells; host or cells: mouse L(tk−) cells, dexamethasone-inducible vector pMSGneo
T2 sequence (P31644 32-462): as the sequence (P31644 32-462) above
T2 sequence (P28472 26-473 partner): as the sequence (P28472 26-473 partner) above
T2 sequence (P18507 40-475): as the sequence (P18507 40-475) above
Method in brief: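 Whole-cell QPatch recordings at 20-22° C, −65 mV holding, in dexamethasone-induced (1 μM, 24 h) L(tk−) cells. Compound pre-applied ≥1 min, then co-applied with GABA EC10-20; percentage change in leak-corrected peak current, taken at ≥100× Ki, normalised to DMCM efficacy; 0.1% DMSO final.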

[3] = molecular target: T3, human recombinant GABAAR containing α5β3γ2 subunits (benzodiazepine site) (Homo sapiens, UniProt P18507+P31644); assay: In vitro radioligand binding assay (α5-GABAAR Ki); details: inhibition of [3H]Ro15-1788 binding, membranes of L(tk−) cells expressing human α5β3γ2; read-out: α5-GABAAR Ki
T3 construct: expressed in transfected cells; host or cells: mouse L(tk−) cells, dexamethasone-inducible vector pMSGneo
T3 sequence (P31644 32-462): as the sequence (P31644 32-462) above
T3 sequence (P28472 26-473 partner): as the sequence (P28472 26-473 partner) above
T3 sequence (P18507 40-475): as the sequence (P18507 40-475) above
Method in brief: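 Membranes from mouse L(tk^−) cells stably expressing human α5β3γ2 GABAAR incubated 1 h at 4° C with 4 nM [^3H]Ro15-1788 and test compound; nonspecific binding with 1 μM TP003. Filter-bound radioactivity counted; Ki from IC50 by Cheng-Prusoff using measured Kd.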

COc1nc(-c2cnn3ncccc23)ccc1NC(=O)c1c(-c2ccccc2)noc1C [Example 83, N-(2-Methoxy-6-(pyrazolo[1,5-b]pyridazin-3-yl)pyridin-3-yl)-5-methyl-3-phenylisoxazole-4-carboxamide]
α5-GABAAR Relative Efficacy (to DMCM), SyncroPatch [1]: −0.50
α5-GABAAR Relative Efficacy (to DMCM), Qpatch ([2]; Conc 3 μM): −0.71
Ki [3]: 13 nM

COc1nc(-c2cnc(N3CCC(O)CC3)nc2)ccc1NC(=O)c1c(-c2ccccc2)noc1C [Example 85, N-(6-(2-(4-Hydroxypiperidin-1-yl)pyrimidin-5-yl)-2-methoxypyridin-3-yl)-5-methyl-3-phenylisoxazole-4-carboxamide]
α5-GABAAR Relative Efficacy (to DMCM), SyncroPatch [1]: −0.94
α5-GABAAR Relative Efficacy (to DMCM), Qpatch ([2]; Conc 0.3 μM): −0.92
Ki [3]: 1.7 nM

COc1nc(-c2cncc(OC(F)F)c2)ccc1NC(=O)c1c(-c2ccccc2)noc1C [Example 87, N-(5′-(Difluoromethoxy)-6-methoxy-[2,3′-bipyridin]-5-yl)-5-methyl-3-phenylisoxazole-4-carboxamide]
α5-GABAAR Relative Efficacy (to DMCM), SyncroPatch [1]: −0.44
α5-GABAAR Relative Efficacy (to DMCM), Qpatch ([2]; Conc 1 μM): −0.71
Ki [3]: 5 nM

COc1nc(-c2ccc(N)nc2)ccc1NC(=O)c1c(-c2ccccc2)noc1C [Example 89, N-(6′-Amino-6-methoxy-[2,3′-bipyridin]-5-yl)-5-methyl-3-phenylisoxazole-4-carboxamide]
α5-GABAAR Relative Efficacy (to DMCM), SyncroPatch [1]: −0.62
α5-GABAAR Relative Efficacy (to DMCM), Qpatch ([2]; Conc 1 μM): −0.64
Ki [3]: 3.1 nM

COc1nc(-c2cnc(O)c(C(F)(F)F)c2)ccc1NC(=O)c1c(-c2ccccc2)noc1C [Example 107, N-(6′-Hydroxy-6-methoxy-5′-(trifluoromethyl)-[2,3′-bipyridin]-5-yl)-5-methyl-3-phenylisoxazole-4-carboxamide]
α5-GABAAR Relative Efficacy (to DMCM), SyncroPatch [1]: −0.47
α5-GABAAR Relative Efficacy (to DMCM), Qpatch ([2]; Conc 3 μM): −0.66
Ki [3]: 13.5 nM

COc1nc(-c2cnc(CN)nc2)ccc1NC(=O)c1c(-c2ccccc2)noc1C.Cl [Example 126, N-[6-[2-(Aminomethyl)pyrimidin-5-yl]-2-methoxy-3-pyridyl]-5-methyl-3-phenyl-isoxazole-4-carboxamide hydrochloride]
α5-GABAAR Relative Efficacy (to DMCM), SyncroPatch [1]: −0.55
α5-GABAAR Relative Efficacy (to DMCM), Qpatch ([2]; Conc 0.3 μM): −0.68
Ki [3]: 1.1 nM

COc1nc(-c2ccc(N)nn2)ccc1NC(=O)c1c(-c2ccccc2)noc1C [Example 127, N-[6-(6-Aminopyridazin-3-yl)-2-methoxy-3-pyridyl]-5-methyl-3-phenyl-isoxazole-4-carboxamide]
α5-GABAAR Relative Efficacy (to DMCM), SyncroPatch [1]: −0.57
α5-GABAAR Relative Efficacy (to DMCM), Qpatch ([2]; Conc 3 μM): −0.72
Ki [3]: 21.8 nM

COc1nc(-c2cnc(C(N)=O)nc2)ccc1NC(=O)c1c(-c2ccccc2)noc1C [Example 129, N-[6-(2-Carbamoylpyrimidin-5-yl)-2-methoxy-3-pyridyl]-5-methyl-3-phenyl-isoxazole-4-carboxamide]
α5-GABAAR Relative Efficacy (to DMCM), SyncroPatch [1]: −0.72
α5-GABAAR Relative Efficacy (to DMCM), Qpatch ([2]; Conc 0.1 μM): −0.77
Ki [3]: 0.8 nM

COc1nc(-c2cnc3n2CCN(C)C3)ccc1NC(=O)c1c(-c2ccccc2)noc1C [Example 137, N-(2-Methoxy-6-(7-methyl-5,6,7,8-tetrahydroimidazol[1,2-a]pyrazin-3-yl)pyridin-3-yl)-5-methyl-3-phenylisoxazole-4-carboxamide]
α5-GABAAR Relative Efficacy (to DMCM), SyncroPatch [1]: −0.69
α5-GABAAR Relative Efficacy (to DMCM), Qpatch ([2]; Conc 1 μM): −0.80
Ki [3]: 3.8 nM

COc1nc(-n2ccnc2)ccc1NC(=O)c1c(-c2ccc(F)cc2)noc1C [Example 141, 3-(4-Fluorophenyl)-N-(6-imidazol-1-yl-2-methoxy-3-pyridyl)-5-methyl-isoxazole-4-carboxamide]
α5-GABAAR Relative Efficacy (to DMCM), SyncroPatch [1]: −1.13
α5-GABAAR Relative Efficacy (to DMCM), Qpatch ([2]; Conc 0.3 μM): −0.93
Ki [3]: 1.9 nM

COc1nc(-c2cnc3n2CCN(C(C)=O)C3)ccc1NC(=O)c1c(-c2ccccc2)noc1C [Example 143, N-(6-(7-Acetyl-5,6,7,8-tetrahydroimidazo[1,2-a]pyrazin-3-yl)-2-methoxypyridin-3-yl)-5-methyl-3-phenylisoxazole-4-carboxamide]
α5-GABAAR Relative Efficacy (to DMCM), SyncroPatch [1]: −0.72
α5-GABAAR Relative Efficacy (to DMCM), Qpatch ([2]; Conc 0.1 μM): −0.80
Ki [3]: 0.4 nM

COc1nc(-c2cnc(CN(C)C)nc2)cnc1NC(=O)c1c(-c2ccccc2)noc1C [Example 144, N-[5-[2-[(Dimethylamino)methyl]pyrimidin-5-yl]-3-methoxy-pyrazin-2-yl]-5-methyl-3-phenyl-isoxazole-4-carboxamide]
α5-GABAAR Relative Efficacy (to DMCM), SyncroPatch [1]: −1.05
α5-GABAAR Relative Efficacy (to DMCM), Qpatch ([2]; Conc 0.3 μM): −0.95
Ki [3]: 1.4 nM

COc1nc(-c2cnc(CN)nc2)cnc1NC(=O)c1c(-c2ccccc2)noc1C.Cl [Example 156, N-[5-[2-(Aminomethyl)pyrimidin-5-yl]-3-methoxy-pyrazin-2-yl]-5-methyl-3-phenyl-isoxazole-4-carboxamide hydrochloride]
α5-GABAAR Relative Efficacy (to DMCM), SyncroPatch [1]: −0.65
α5-GABAAR Relative Efficacy (to DMCM), Qpatch ([2]; Conc 0.3 μM): −0.91
Ki [3]: 2.7 nM

COc1nc(-c2ccn3nc(N)nc3c2)ccc1NC(=O)c1c(C)nnn1-c1ccccc1 [Example 159, N-(6-(2-Amino-[1,2,4]triazolo[1,5-a]pyridin-7-yl)-2-methoxypyridin-3-yl)-4-methyl-1-phenyl-1H-1,2,3-triazole-5-carboxamide]
α5-GABAAR Relative Efficacy (to DMCM), SyncroPatch [1]: −0.81
α5-GABAAR Relative Efficacy (to DMCM), Qpatch ([2]; Conc 1 μM): −0.82
Ki [3]: 9.2 nM

COc1nc(-n2cnc3c2CNCC3)ccc1NC(=O)c1c(-c2ccccc2)noc1C.Cl.Cl [Example 179, N-[2-Methoxy-6-(4,5,6,7-tetrahydroimidazo[4,5-c]pyridin-3-yl)-3-pyridyl]-5-methyl-3-phenyl-isoxazole-4-carboxamide dihydrochloride]
α5-GABAAR Relative Efficacy (to DMCM), SyncroPatch [1]: −0.38
α5-GABAAR Relative Efficacy (to DMCM), Qpatch ([2]; Conc 0.3 μM): −0.65
Ki [3]: 3 nM

COc1nc(-c2cnc(CN)nc2)ccc1NC(=O)c1c(-c2ccccc2)nnn1C.Cl [Example 180, N-(6-(2-(Aminomethyl)pyrimidin-5-yl)-2-methoxypyridin-3-yl)-1-methyl-4-phenyl-1H-1,2,3-triazole-5-carboxamide hydrochloride]
α5-GABAAR Relative Efficacy (to DMCM), SyncroPatch [1]: −0.48
α5-GABAAR Relative Efficacy (to DMCM), Qpatch ([2]; Conc 1 μM): −0.63
Ki [3]: 3.9 nM

COc1nc(-c2cnc(CN)nc2)ccc1NC(=O)c1c(-c2ccc(F)cc2)noc1C.Cl [Example 185, N-[6-[2-(Aminomethyl)pyrimidin-5-yl]-2-methoxy-3-pyridyl]-3-(4-fluorophenyl)-5-methyl-isoxazole-4-carboxamide hydrochloride]
α5-GABAAR Relative Efficacy (to DMCM), SyncroPatch [1]: −1.23
α5-GABAAR Relative Efficacy (to DMCM), Qpatch ([2]; Conc 0.1 μM): −0.79
Ki [3]: 0.5 nM
